Laboratory results reported in ChEMBL document CHEMBL1138694, “Discovery of small molecule antagonists of TRPV1” (2004).

Tests used:
[1] = Antagonistic activity against rat transient receptor potential vanilloid type 1 expressed in HEK293 cells compared to capsaicin; format: functional
[2] = Inhibition of capsaicin- response in rat dorsal root ganglion; format: functional
[3] = molecular target: Transient receptor potential cation channel subfamily V member 1 (Homo sapiens) (UniProt Q8NER1); experiment: Antagonistic activity against human transient receptor potential vanilloid type 1 in FLIPR assay; format: functional
[4] = molecular target: Transient receptor potential cation channel subfamily V member 1 (Cavia porcellus) (UniProt Q6R5A3); experiment: Antagonistic activity against guinea pig Transient receptor potential vanilloid type 1 expressed in HEK293 cells compared to capsaicin
Transient receptor potential cation channel subfamily V member 1 (Cavia porcellus), sequence (Q6R5A3 whole entry, looked up): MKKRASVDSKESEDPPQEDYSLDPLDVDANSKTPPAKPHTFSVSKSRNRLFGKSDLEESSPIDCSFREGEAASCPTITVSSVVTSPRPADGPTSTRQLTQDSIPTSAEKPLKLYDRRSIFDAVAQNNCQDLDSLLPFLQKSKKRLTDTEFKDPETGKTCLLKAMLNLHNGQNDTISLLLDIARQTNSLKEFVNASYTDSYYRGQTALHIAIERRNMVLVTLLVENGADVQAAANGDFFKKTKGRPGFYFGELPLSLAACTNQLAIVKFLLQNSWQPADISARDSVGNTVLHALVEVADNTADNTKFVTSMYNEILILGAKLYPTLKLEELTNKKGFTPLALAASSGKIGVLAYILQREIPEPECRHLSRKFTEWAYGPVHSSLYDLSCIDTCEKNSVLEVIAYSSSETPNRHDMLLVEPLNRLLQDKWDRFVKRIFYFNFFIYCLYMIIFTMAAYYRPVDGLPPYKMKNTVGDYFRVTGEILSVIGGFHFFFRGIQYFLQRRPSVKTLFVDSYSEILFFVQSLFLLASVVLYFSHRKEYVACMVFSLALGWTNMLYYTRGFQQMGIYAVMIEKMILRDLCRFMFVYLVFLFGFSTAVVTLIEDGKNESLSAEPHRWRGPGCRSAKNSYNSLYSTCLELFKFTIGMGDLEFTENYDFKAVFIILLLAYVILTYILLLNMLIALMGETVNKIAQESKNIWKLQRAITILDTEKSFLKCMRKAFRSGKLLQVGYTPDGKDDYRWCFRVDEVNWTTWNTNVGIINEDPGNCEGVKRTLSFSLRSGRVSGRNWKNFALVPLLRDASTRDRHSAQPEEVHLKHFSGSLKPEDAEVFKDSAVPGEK

Transient receptor potential cation channel subfamily V member 1 (Homo sapiens), sequence (Q8NER1 whole entry): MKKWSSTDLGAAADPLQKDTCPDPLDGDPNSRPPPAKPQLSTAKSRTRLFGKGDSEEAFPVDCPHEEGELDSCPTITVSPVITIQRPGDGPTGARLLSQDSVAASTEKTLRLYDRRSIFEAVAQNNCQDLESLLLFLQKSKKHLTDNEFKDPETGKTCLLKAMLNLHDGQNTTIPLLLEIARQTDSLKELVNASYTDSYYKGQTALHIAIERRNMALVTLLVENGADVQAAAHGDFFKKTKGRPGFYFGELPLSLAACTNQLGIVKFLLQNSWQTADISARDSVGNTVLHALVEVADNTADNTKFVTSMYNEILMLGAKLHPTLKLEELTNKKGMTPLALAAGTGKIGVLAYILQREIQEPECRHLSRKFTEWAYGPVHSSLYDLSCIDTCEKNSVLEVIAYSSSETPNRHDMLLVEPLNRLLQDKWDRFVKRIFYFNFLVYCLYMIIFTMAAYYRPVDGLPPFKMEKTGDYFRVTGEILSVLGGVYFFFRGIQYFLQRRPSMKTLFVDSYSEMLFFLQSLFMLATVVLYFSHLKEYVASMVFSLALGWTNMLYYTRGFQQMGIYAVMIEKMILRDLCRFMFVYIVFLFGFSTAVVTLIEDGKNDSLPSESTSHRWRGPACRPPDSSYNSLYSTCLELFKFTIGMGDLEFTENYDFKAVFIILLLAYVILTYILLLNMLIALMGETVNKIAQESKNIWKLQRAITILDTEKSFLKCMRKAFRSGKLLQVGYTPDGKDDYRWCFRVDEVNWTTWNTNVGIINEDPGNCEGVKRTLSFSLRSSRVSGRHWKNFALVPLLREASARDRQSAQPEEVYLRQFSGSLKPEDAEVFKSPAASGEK

pKb [3]	pKb [4]	Structure (SMILES)	pKb [1]	pKb [2]
7.8	7.5	CCN(CCNC(=O)Nc1ccccc1Br)c1cccc(C)c1	7.7	7.4
7.5		Oc1cc2c(cc1O)CN(C(=S)NCCc1ccc(Cl)cc1)CCC2		
7.7		COc1cccc(NC(=O)/C=C/c2ccc(Cl)cc2)c1		
